From patent US11957759B1, “Rapidly accelerated fibrosarcoma (RAF) degrading compounds and associated methods of use” (Arvinas Operations, Inc., priority 2022, dated 2024) come the findings set out here.

One assay addresses T1, B-RAF V600E (Homo sapiens, UniProt P15056, V600E).
T1 construct: expressed in transfected cells; host or cells: T-Rex 293 cells (Invitrogen #R71007)
In words: Target protein degradation, assay C: T-Rex 293 cells, HA-BRAF_V600E, 384 well format. It counts as cell-based. As to conditions: T-Rex 293 HA-BRAF_V600E cells, 24 hours, Examples 83-269; for DC50: Assay C; for Dmax: T-REx-293, Assay C. On the procedure: C. T-Rex 293 Cells (384 Well Format)
(§1) T-Rex 293 cells were purchased from Invitrogen (#R71007), and stably transfected with a pcDNA4/TO_HA-BRAF_V600E construct, using 400 ug Zeocin for selection. V600E cells are plated in DMEM media (Gibco #11965118) containing 10% FBS (Gibco #16000044), 1% penicillin-streptomycin (ThermoFisher #15140122), 1:250 zeocin (Invitrogen #R-25005), and 1 ng/mL doxycycline (Selleckchem #4163) at a density of 7,500 cells/well in 45 μl on PDL coated, black clear bottom 384 well plates (Corning #354663) and incubated at 37° C.+5% CO2 for 24 hours. The following day, PROTAC compounds in a 1:3 11 point dilution are diluted into DMEM media using an Agilent Bravo. 5 ul of PROTACs suspended in DMEM media are added to the cells, with a final assay concentration ranging from 300 nM to 5 pM in 0.5% DMSO. Plates are incubated at 37° C.+5% CO2 for 24 hours. At the end of treatment, media is aspirated, and cells are fixed in 50 uL 4% PFA (EMS #15710) in PBS++(PBS, 1 mM CaCl, 1 mM MgCl) at RT for 15 minutes. Cells are washed 2× with 60 uL PBS++ and permeabilized in 50 uL 1% Triton X-100 (Sigma #93443) in PBS++ for 5 minutes at RT. Cells are washed in PBS++ prior to blocking with 50 uL Licor blocking buffer (Licor #927-60001) for 1 hour at RT. HA-tagged BRAF was stained using 50 uL HA antibody (CST #3724) at 1:1000 in Licor blocking buffer for two hours at RT. Primary is aspirated before adding 50 ul of secondary antibody solution containing 1:1000 Hoechst (ThermoFisher #62249), 1:1000 HCS CellMask Deep Red Stain (ThermoFisher #H32721), and 1:5000 goat anti-rabbit IgG Alexa-Fluor 488 (ThermoFisher #A32731) in PBS++ for 1 hr at RT. Plates are washed 4× with 60 uL PBS++, then sealed with Adhesive Black Light Absorbing Film (VWR #89087-692) and imaged on the ThermoFisher CX7 PRO high content instrument. BRAF intensity is quantified in HCS Studio software (ThermoFisher), using a custom script, exported, analyzed using KNIME, and curve curation is performed in an ELN (Scilligence). Cell toxicity is measured via comparing number of nuclei in PROTAC treated wells to DMSO controls.
(§2) The concentration of an exemplary compound that leads to half maximal degradation (DC50) as well as the maximum degradation observed (Dmax, conventionally expressed as a percentage of control) is shown below in Table 2.

In a further assay the target is T2, B-RAF G466V (Homo sapiens, UniProt P15056, G466V).
T2 construct: expressed in transfected cells; host or cells: T-Rex 293 cells (Invitrogen #R71007)
T2 sequence (P15056 whole entry G466V): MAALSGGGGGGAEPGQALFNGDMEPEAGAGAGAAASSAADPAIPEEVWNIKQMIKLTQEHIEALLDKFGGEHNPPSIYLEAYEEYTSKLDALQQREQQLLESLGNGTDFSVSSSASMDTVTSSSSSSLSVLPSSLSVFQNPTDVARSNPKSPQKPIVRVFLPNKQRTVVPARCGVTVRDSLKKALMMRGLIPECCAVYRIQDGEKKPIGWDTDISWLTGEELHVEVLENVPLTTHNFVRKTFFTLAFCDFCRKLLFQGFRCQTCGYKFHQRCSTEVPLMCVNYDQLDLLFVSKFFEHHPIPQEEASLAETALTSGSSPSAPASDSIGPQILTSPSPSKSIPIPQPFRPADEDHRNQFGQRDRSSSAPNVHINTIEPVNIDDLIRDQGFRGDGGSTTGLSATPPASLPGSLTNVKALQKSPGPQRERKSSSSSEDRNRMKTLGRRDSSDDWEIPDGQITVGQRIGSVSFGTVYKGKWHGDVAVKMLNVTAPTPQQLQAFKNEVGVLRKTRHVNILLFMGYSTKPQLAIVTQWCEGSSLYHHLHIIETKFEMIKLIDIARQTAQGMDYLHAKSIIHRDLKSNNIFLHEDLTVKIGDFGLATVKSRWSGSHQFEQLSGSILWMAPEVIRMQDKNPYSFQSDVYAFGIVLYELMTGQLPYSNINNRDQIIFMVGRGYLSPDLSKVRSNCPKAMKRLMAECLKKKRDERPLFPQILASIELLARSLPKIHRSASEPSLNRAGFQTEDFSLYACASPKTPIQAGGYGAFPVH
The experiment in a line: Target protein degradation, assay D: T-Rex 293 cells, HA-BRAF_G466V, 384 well format. It counts as cell-based. As to conditions: T-Rex 293 HA-BRAF_G466V cells, 24 hours, Examples 83-269; for Dmax: T-REx-293, Assay D. The protocol:
D. T-Rex 293 Cells (384 Well Format)
as §1, with “pcDNA4/TO_HA-BRAF_G466V” for “pcDNA4/TO_HA-BRAF_V600E”, “G466V” for “V600E”
as §2

Each structure is given as a SMILES string.

T1 sequence (P15056 whole entry V600E): as the sequence (P15056 whole entry G466V) above, with V466G, V600E counted along it

Consider `N#Cc1c(NS(=O)(=O)N2CC[C@@H](F)C2)ccc(F)c1Oc1ccc2ncn(-c3ccc(N4CCN(CC5CCN(c6ccc(C7CCC(=O)NC7=O)cc6F)CC5)CC4)cc3)c(=O)c2c1` (single isomer, unassigned) [Example 112, (3R)-N-(2-cyano-3-{[3-(4-{4-[(1-{4-[(3R*)-2,6-dioxopiperidin-3-yl]-2-fluorophenyl}piperidin-4-yl)methyl]piperazin-1-yl}phenyl)-4-oxo-3,4-dihydroquinazolin-6-yl]oxy}-4-fluorophenyl)-3-fluoropyrrolidine-1-sulfonamide], for which the half-maximal degradation concentration (DC50) on B-RAF V600E fell in the range of 5 to 50 nM; at B-RAF G466V (Assay D), 1 to 10 nM. The maximal degradation (Dmax) at B-RAF V600E and on B-RAF G466V was 35 to 70% each time.
Take `Cc1c(N2CCC(CN3CCN(c4ccc(-n5cnc6ccc(Oc7c(F)ccc(NS(=O)(=O)N8CC[C@@H](F)C8)c7C#N)cc6c5=O)cc4)CC3)CC2)ccc2c1CN(C1CCC(=O)NC1=O)C2=O` (single isomer, unassigned) [Example 113, (3R)-N-(2-cyano-3-{[3-(4-{4-[(1-{2-[(3R*)-2,6-dioxopiperidin-3-yl]-4-methyl-1-oxo-2,3-dihydro-1H-isoindol-5-yl}piperidin-4-yl)methyl]piperazin-1-yl}phenyl)-4-oxo-3,4-dihydroquinazolin-6-yl]oxy}-4-fluorophenyl)-3-fluoropyrrolidine-1-sulfonamide]: the values for the 50% degradation concentration (DC50) on B-RAF V600E and on B-RAF G466V (Assay D) were 50 to 500 nM and 1 to 10 nM, respectively.
As to `N#Cc1c(NS(=O)(=O)N2CC[C@@H](F)C2)ccc(F)c1Oc1ccc2ncn(-c3ccc(N4CC(CN5CCN(C6CCN(c7ccc8c(c7)CN(C7CCC(=O)NC7=O)C8=O)CC6)CC5)C4)cc3)c(=O)c2c1` (single isomer, unassigned) [Example 197, (3R)-N-[2-cyano-3-({3-[4-(3-{[4-(1-{2-[(3R*)-2,6-dioxopiperidin-3-yl]-1-oxo-2,3-dihydro-1H-isoindol-5-yl}piperidin-4-yl)piperazin-1-yl]methyl}azetidin-1-yl)phenyl]-4-oxo-3,4-dihydroquinazolin-6-yl}oxy)-4-fluorophenyl]-3-fluoropyrrolidine-1-sulfonamide], the 50% degradation concentration (DC50) on B-RAF V600E was 50 to 500 nM; on B-RAF G466V (Assay D), 1 to 10 nM. Besides, the greatest degradation seen (Dmax) on B-RAF V600E was at most 35%; at B-RAF G466V, 35 to 70%.
For `N#Cc1c(NS(=O)(=O)N2CC[C@@H](F)C2)ccc(F)c1Oc1ccc2ncn(-c3ccc(N4CC(CN5CCN(C6CCN(c7ccc8c(c7)CN(C7CCC(=O)NC7=O)C8=O)CC6)CC5)C4)cc3)c(=O)c2c1` (single isomer, unassigned) [Example 198, (3R)-N-[2-cyano-3-({3-[4-(3-{[4-(1-{2-[(3R*)-2,6-dioxopiperidin-3-yl]-1-oxo-2,3-dihydro-1H-isoindol-5-yl}piperidin-4-yl)piperazin-1-yl]methyl}azetidin-1-yl)phenyl]-4-oxo-3,4-dihydroquinazolin-6-yl}oxy)-4-fluorophenyl]-3-fluoropyrrolidine-1-sulfonamide], the figures for the half-maximal degradation concentration (DC50) on B-RAF V600E and at B-RAF G466V (Assay D) were 50 to 500 nM and 1 to 10 nM, respectively.
Take `N#Cc1c(NS(=O)(=O)N2CC[C@@H](F)C2)ccc(F)c1Oc1ccc2ncn(-c3ccc(N4CCN(C(=O)C5CCN(c6ccc7c(c6)CN(C6CCC(=O)NC6=O)C7=O)CC5)CC4)cc3)c(=O)c2c1` (single isomer, unassigned) [Example 241, (3R)-N-{2-cyano-3-[(3-{4-[4-(1-{2-[(3R*)-2,6-dioxopiperidin-3-yl]-1-oxo-2,3-dihydro-1H-isoindol-5-yl}piperidine-4-carbonyl)piperazin-1-yl]phenyl}-4-oxo-3,4-dihydroquinazolin-6-yl)oxy]-4-fluorophenyl}-3-fluoropyrrolidine-1-sulfonamide]: the DC50 was over 500 nM on B-RAF V600E and over 30 nM on B-RAF G466V (Assay D). In addition, at B-RAF G466V, the Dmax is 35 to 70%.
Regarding `N#Cc1c(NS(=O)(=O)N2CC[C@@H](F)C2)ccc(F)c1Oc1ccc2ncn(-c3ccc(N4CCN(C(=O)C5CCN(c6ccc7c(c6)CN(C6CCC(=O)NC6=O)C7=O)CC5)CC4)cc3)c(=O)c2c1` (single isomer, unassigned) [Example 242, (3R)-N-{2-cyano-3-[(3-(4-[4-(1-{2-[(3R*)-2,6-dioxopiperidin-3-yl]-1-oxo-2,3-dihydro-1H-isoindol-5-yl}piperidine-4-carbonyl)piperazin-1-yl]phenyl}-4-oxo-3,4-dihydroquinazolin-6-yl)oxy]-4-fluorophenyl}-3-fluoropyrrolidine-1-sulfonamide], the DC50 at B-RAF V600E was over 500 nM. Also, at B-RAF G466V (Assay D), the “B-RAF G466V DMax (%)” value is “C (C ≤ 35)” and the 50% degradation concentration (DC50) was 10 to 30 nM.
Turning to `N#Cc1c(NS(=O)(=O)N2CC[C@@H](F)C2)ccc(F)c1Oc1ccc2ncn(-c3cccc(C4CCN(CC5CCN(c6ccc7c(c6)CN([C@H]6CCC(=O)NC6=O)C7=O)CC5)C4)c3)c(=O)c2c1` (single isomer, unassigned) [Example 257, (3R)-N-{2-cyano-3-[(3-{3-[(3R*)-1-[(1-{2-[(3S)-2,6-dioxopiperidin-3-yl]-1-oxo-2,3-dihydro-1H-isoindol-5-yl}piperidin-4-yl)methyl]pyrrolidin-3-yl]phenyl}-4-oxo-3,4-dihydroquinazolin-6-yl)oxy]-4-fluorophenyl}-3-fluoropyrrolidine-1-sulfonamide], the DC50 at B-RAF V600E lay within 50 to 500 nM; at B-RAF G466V (Assay D) it was 1 to 10 nM. The maximal degradation (Dmax) on B-RAF V600E and at B-RAF G466V was 35 to 70% throughout.
`N#Cc1c(NS(=O)(=O)N2CC[C@@H](F)C2)ccc(F)c1Oc1ccc2ncn(-c3cccc(C4CCN(CC5CCN(c6ccc7c(c6)CN([C@H]6CCC(=O)NC6=O)C7=O)CC5)C4)c3)c(=O)c2c1` (single isomer, unassigned) [Example 259, (3R)-N-{2-cyano-3-[(3-{3-[(3R*)-1-[(1-{2-[(3S)-2,6-dioxopiperidin-3-yl]-1-oxo-2,3-dihydro-1H-isoindol-5-yl}piperidin-4-yl)methyl]pyrrolidin-3-yl]phenyl}-4-oxo-3,4-dihydroquinazolin-6-yl)oxy]-4-fluorophenyl}-3-fluoropyrrolidine-1-sulfonamide]: the figures for the 50% degradation concentration (DC50) at B-RAF V600E and at B-RAF G466V (Assay D) were 50 to 500 nM and 1 to 10 nM, respectively.
